Results published in patent US9750714B2, “Pharmaceutical use of 3, 4-bis-benzylsulfonylbutyronitrile” (Olatec Therapeutics LLC, priority 2013, dated 2017).

Columns and labels:
[1] = test system: arachidonic acid-induced ear swelling; assay: topical arachidonic acid-induced ear swelling model in mice; type: in vivo
Experimental: The test compound, indomethacin (positive control), and vehicle were evaluated for anti-inflammatory activity in a topical arachidonic acid-induced ear swelling model in mice. Male ICR mice weighing 22±2 g were used and randomly divided; the test compound and vehicle control had 10 mice, and indomethacin had 5 mice. Arachidonic Acid (0.5 mg in 20 μl of acetone:ethanol/1:1) was applied topically to the anterior and posterior surfaces of the right ear of each mouse. Test substances and vehicle, as listed in Table 2 were similarly applied 30 min before and 15 min after arachidonic acid application. The thickness of the right ear and the left ear was measured and the difference calculated as an indication of the inflammation in the right ear. Ear swelling was measured by a Dyer model micrometer gauge at 60 and 90 minutes after arachidonic acid application as an index of inflammation. Percent inhibition was calculated according to the formula: Ic−It/Ic×100, where Ic and It refers to increase of ear thickness (mm) in control and treated mice, respectively. ANOVA and Dunnett's test were employed to ascertain significant difference between vehicle control and treated groups. Significance is set at P<0.05 level.

[2] = test system: tail flick response to heat stimulus; assay: tail flick test in mice (49° C. water bath); type: in vivo
Experimental: The tail flick test is a test of the pain response in animals. The tail flick test is used in basic pain research and to measure the effectiveness of analgesics, by observing the tail flick reaction to heat in an animal. This test assesses the nociceptive response to a local pain stimulus, and the ability of a drug to inhibit this response.
Vehicle control (DMSO) and test compound 3, 4-bis-benzylsulfonylbutanenitrile in DMSO were administered by oral gavage to mice with a volume of 5 mL/kg, immediately prior to testing, at time zero. The test compound was administered at a dosage of 500 mg/kg in DMSO. Positive control morphine in water was administered at time zero by subcutaneous injection at 8 mg/kg to mice. […] The purpose of morphine is […] to serve as a comparison with the test compound. Each group had 10 mice.
The response of mice to heat stimulus was evaluated by measuring the time of tail-flick or tail-flick latency from 49° C. water bath. Briefly, the animal was held with its tail hanging down. Approximately 2 inches of the tail was immersed in a beaker of water at 38±1° C. for about 30 seconds, and this was done twice to acclimate the animal to the procedure.
Subsequently, approximately 2 inches of the tail was immersed in a beaker of water at 49±1° C., at which point a timer was started.
Tail flick measurements were made at 0, 30, 60, and 120 minutes post administration of the dosage of test compound, vehicle, or morphine. An ANOVA was done, and if p<0.05, a Dunnett's t test was employed to calculate significant difference between vehicle control and test compound treated groups. A pairwise Student's t test was used to calculate differences between the morphine group and the control group. […] Analysis with p-values<0.05 is considered significant.

Structure (SMILES): N#CCC(CS(=O)(=O)Cc1ccccc1)S(=O)(=O)Cc1ccccc1 (stereo not drawn) [3,4-bis-benzylsulfonylbutanenitrile, 3,4-bis-benzylsulfonylbutanenitrile]
- anti-inflammatory activity in the mouse ear swelling model (in words) ([1]; applied topically, inflammation induced by arachidonic acid): anti-inflammatory
- tail flick latency compared with vehicle-treated mice ([2]; test compound 500 mg/kg in DMSO, oral, 120 minutes post dosing): statistically significant

Structure (SMILES): CN1CC[C@]23c4c5ccc(O)c4O[C@H]2[C@@H](O)C=C[C@H]3[C@H]1C5 [morphine]
- tail flick latency compared with vehicle-treated mice ([2]; morphine 8 mg/kg subcutaneous, 30 minutes post dosing): statistically significant
- tail flick latency compared with vehicle-treated mice ([2]; morphine 8 mg/kg subcutaneous, 60 minutes post dosing): statistically significant
- tail flick latency compared with vehicle-treated mice ([2]; morphine 8 mg/kg subcutaneous, 120 minutes post dosing): not

Structure (SMILES): COc1ccc2c(c1)c(CC(=O)O)c(C)n2C(=O)c1ccc(Cl)cc1 [Indomethacin, reference compound]
- % Inhibition of ear swelling ([1]; topical, applied 30 min before and 15 min after arachidonic acid, measured at 90 minutes, relative to vehicle, indomethacin 14 mM (0.1 mg/20 μL), test compound 375 mM (2.8 mg/20 μL)): 58%
